Patent publication US20150343016A1, “CHEMICAL ENTITIES AND THERAPEUTIC USES THEREOF” (The Regents of the University of Colorado, a body corporate, priority 2010, published 2015)

Experiments:
[1] = system: HN31 Head and Neck Cancer cell line; assay: MTT assay, Bouvardin with ionizing radiation, HN31 (treated on the same day); assay type: cell-based, human; conditions: HN31 cells
Description: “Combination Index” computation. Combination Indices were calculated using CalcuSyn software (Biosoft), which uses the method of Chou and Talalay. This method first computes drug-induced effect using the Hill Equation: where E is the measured effect; C is the drug concentration; Emax is the full range of drug effect, usually at or near 100%; IC50 is the drug concentration producing the median effect of 50%; and n is the curve shape parameter describing the steepness of the concentration-effect relationship. The Chou and Talalay method then linearizes the Hill Equation by logarithmic transformation as: where fu is the fraction of cells left unaffected after drug exposure, fa is the fraction of cells affected by the exposure, C is the drug concentration used, Cm is the concentration to achieve the median effect, and n is the curve shape parameter. Cm and n are equivalent to IC50 and n, respectively, in the Hill Equation. The values of n (obtained from the slope), nlog(Cm) (obtained from the absolute value of the intercept), and, therefore, Cm are obtained by plotting log(fu−1−1) versus log(C). These numbers are then used to compute the Combination Index (CI) according to the formula: CI=(D)1/(Dx)1+(D)2/(Dx)2 (26). (Dx)1 and (Dx)2 are the doses required to achieve a given effect level for each treatment, i.e. a specified value of Fraction Affected or Fa. (D)1 and (D)2 are the doses of each treatment in a given combination which gives the same Fa.
(§1) The growth inhibitory effects of Bouvardin with ionizing radiation (IR) were evaluated using a modified tetrazolium salt (MTT) assay. In the MTT assay, 1,000 to 2,000 viable cells were plated in 100 uL of growth medium in 96-well plates (Corning, Ithaca, N.Y.). Following an overnight incubation, drug was added in varying concentrations and the plates were irradiated on the same day (co-treatment) or 24 hr later (pre-treatment) and incubated for 6 to 7 days. The tetrazolium salt was added at a concentration of 0.4 mg/mL to each well following the 6- to 7-day treatment. The plates were incubated with the salt for 4 hours at 37° C. At 4 hours, the medium was aspirated off, leaving the dark blue formazan product at the bottom of the wells. The reduced MTT product was solubilized by adding 100 mL of 0.2 N HCl in 75% isopropanol, 23% MilliQ water to each well. Thorough mixing was done using a Titertek multichannel pipetman. The absorbency of each well was measured using an automated plate reader (Molecular Devices, Sunnyvale, Calif.). All experiments were done in triplicate.
MTT assays were used to determine the effect of Bouvardin (concentrations in uM) in combination with ionizing radiation (in Gy, X-axis). FIG. 14 depicts CI values for Bouvardin and radiation on 3 cell lines. Combination Index data from 3 different Head and Neck Cancer cell lines are shown. Black dashed lines represent a CI value of 1. CI values below 1 indicate synergy. 1586 and UM-SCC19 were pre-treated whereas HN31 was treated on the same day.

[2] = system: 17 cell lines including Head and Neck Squamous Cell Carcinoma and non-small cell lung cancer lines; assay: MTT assays, Bouvardin with radiation, panel of 17 cell lines; assay type: cell-based, human
Description: The observation that Bouvardin enhanced the effect of radiation on Drosophila larvae led us to question whether this effect would translate to a mammalian system. In order to determine what cell lines should be used to create tumor xenografts in mice, MTT assays for cell viability were used first to test the effects of Bouvardin alone and in combination with radiation in human cancer cells. MTT assays measure cell viability by measuring mitochondrial enzyme function. We used 17 cell lines including Head and Neck Squamous Cell Carcinoma and non-small cell lung cancer lines.
The data for non-small cell lung cancer cell line (H157) is depicted in FIG. 16.
as §1, with “At 4 hours, the medium was aspirated off, leaving the dark blue formazan product at the bottom of the wells. The reduced MTT product was solubilized by adding 100 mL of 0.2 N HCl in 75% isopropanol, 23% MilliQ water to each well. Thorough mixing was done using a Titertek multichannel pipetman.” left out, “All experiments were done in triplicate.” left out

Question: For `COc1ccc(C[C@H]2C(=O)N[C@H](C)C(=O)N(C)[C@@H]3C(=O)N(C)[C@@H](Cc4ccc(O)c(c4)Oc4ccc(cc4)[C@H]3O)C(=O)N[C@@H](C)C(=O)N[C@H](C)C(=O)N2C)cc1` (stereo in doubt) [Bouvardin, bouvardin], which “Combination Index” value ([1]; Bouvardin 0.001 uM + 1 Gy IR) is on record?
Answer: The value was 4.673.

Question: What about the “Fraction Affected” value ([1]; Bouvardin 0.001 uM + 1 Gy IR) of the same compound?
Answer: Its value is 0.165.

Question: And the “Combination Index” value ([1]; Bouvardin 0.001 uM + 2 Gy IR)?
Answer: Its value is 1.605.

Question: What about the “Fraction Affected” value ([1]; Bouvardin 0.001 uM + 2 Gy IR) of the same compound?
Answer: The value was 0.292.

Question: And the “Combination Index” value ([1]; Bouvardin 0.001 uM + 4 Gy IR)?
Answer: The value was 0.989.

Question: What about the “Fraction Affected” value ([1]; Bouvardin 0.001 uM + 4 Gy IR) of the same compound?
Answer: The value was 0.478.

Question: And the “Combination Index” value ([1]; Bouvardin 0.003 uM + 1 Gy IR)?
Answer: The value was 1.405.

Question: What about the “Fraction Affected” value ([1]; Bouvardin 0.003 uM + 1 Gy IR) of the same compound?
Answer: Its value is 0.362.

Question: What about the “Combination Index” value ([1]; Bouvardin 0.003 uM + 2 Gy IR) of the same compound?
Answer: Its value is 0.877.

Question: What about the “Fraction Affected” value ([1]; Bouvardin 0.003 uM + 2 Gy IR) of the same compound?
Answer: Its value is 0.463.

Question: And the “Combination Index” value ([1]; Bouvardin 0.003 uM + 4 Gy IR)?
Answer: Its value is 0.93.

Question: What about the “Fraction Affected” value ([1]; Bouvardin 0.003 uM + 4 Gy IR) of the same compound?
Answer: Its value is 0.535.

Question: What about the “Combination Index” value ([1]; Bouvardin 0.006 uM + 1 Gy IR) of the same compound?
Answer: Its value is 0.462.

Question: And the “Fraction Affected” value ([1]; Bouvardin 0.006 uM + 1 Gy IR)?
Answer: The value was 0.574.

Question: And the “Combination Index” value ([1]; Bouvardin 0.006 uM + 2 Gy IR)?
Answer: The value was 0.517.

Question: What about the “Fraction Affected” value ([1]; Bouvardin 0.006 uM + 2 Gy IR) of the same compound?
Answer: Its value is 0.602.

Question: And the “Combination Index” value ([1]; Bouvardin 0.006 uM + 4 Gy IR)?
Answer: The value was 1.005.

Question: What about the “Fraction Affected” value ([1]; Bouvardin 0.006 uM + 4 Gy IR) of the same compound?
Answer: Its value is 0.559.

Question: What about the “Combination Index” value ([1]; Bouvardin 0.01 uM + 1 Gy IR) of the same compound?
Answer: Its value is 0.401.

Question: And the “Fraction Affected” value ([1]; Bouvardin 0.01 uM + 1 Gy IR)?
Answer: The value was 0.731.

Question: And the “Combination Index” value ([1]; Bouvardin 0.01 uM + 2 Gy IR)?
Answer: The value was 0.419.

Question: What about the “Fraction Affected” value ([1]; Bouvardin 0.01 uM + 2 Gy IR) of the same compound?
Answer: Its value is 0.747.

Question: And the “Combination Index” value ([1]; Bouvardin 0.01 uM + 4 Gy IR)?
Answer: The value was 0.657.

Question: What about the “Fraction Affected” value ([1]; Bouvardin 0.01 uM + 4 Gy IR) of the same compound?
Answer: Its value is 0.73.

Question: And the “Combination Index” value ([1]; Bouvardin 0.03 uM + 1 Gy IR)?
Answer: Its value is 0.565.

Question: What about the “Fraction Affected” value ([1]; Bouvardin 0.03 uM + 1 Gy IR) of the same compound?
Answer: Its value is 0.753.

Question: What about the “Combination Index” value ([1]; Bouvardin 0.03 uM + 2 Gy IR) of the same compound?
Answer: Its value is 0.471.

Question: And the “Fraction Affected” value ([1]; Bouvardin 0.03 uM + 2 Gy IR)?
Answer: Its value is 0.782.

Question: And the “Combination Index” value ([1]; Bouvardin 0.03 uM + 4 Gy IR)?
Answer: Its value is 1.099.

Question: What about the “Fraction Affected” value ([1]; Bouvardin 0.03 uM + 4 Gy IR) of the same compound?
Answer: The value was 0.717.

Question: What about the “Combination Index” value ([1]; Bouvardin 0.06 uM + 1 Gy IR) of the same compound?
Answer: Its value is 0.663.

Question: And the “Fraction Affected” value ([1]; Bouvardin 0.06 uM + 1 Gy IR)?
Answer: The value was 0.778.

Question: What about the “Combination Index” value ([1]; Bouvardin 0.06 uM + 2 Gy IR) of the same compound?
Answer: The value was 0.673.

Question: What about the “Fraction Affected” value ([1]; Bouvardin 0.06 uM + 2 Gy IR) of the same compound?
Answer: The value was 0.785.

Question: What about the “Combination Index” value ([1]; Bouvardin 0.06 uM + 4 Gy IR) of the same compound?
Answer: Its value is 1.086.

Question: What about the “Fraction Affected” value ([1]; Bouvardin 0.06 uM + 4 Gy IR) of the same compound?
Answer: Its value is 0.756.

Question: And the “Combination Index” value ([1]; Bouvardin 0.1 uM + 1 Gy IR)?
Answer: The value was 0.97.

Question: And the “Fraction Affected” value ([1]; Bouvardin 0.1 uM + 1 Gy IR)?
Answer: The value was 0.825.

Question: What about the “Combination Index” value ([1]; Bouvardin 0.1 uM + 2 Gy IR) of the same compound?
Answer: The value was 1.673.

Question: What about the “Fraction Affected” value ([1]; Bouvardin 0.1 uM + 2 Gy IR) of the same compound?
Answer: The value was 0.789.

Question: What about the “Combination Index” value ([1]; Bouvardin 0.1 uM + 4 Gy IR) of the same compound?
Answer: Its value is 1.914.

Question: And the “Fraction Affected” value ([1]; Bouvardin 0.1 uM + 4 Gy IR)?
Answer: Its value is 0.784.

Question: And the “Combination Index” value ([1]; Bouvardin 0.3 uM + 1 Gy IR)?
Answer: The value was 1.563.

Question: What about the “Fraction Affected” value ([1]; Bouvardin 0.3 uM + 1 Gy IR) of the same compound?
Answer: The value was 0.837.

Question: And the “Combination Index” value ([1]; Bouvardin 0.3 uM + 2 Gy IR)?
Answer: The value was 1.911.

Question: And the “Fraction Affected” value ([1]; Bouvardin 0.3 uM + 2 Gy IR)?
Answer: Its value is 0.826.

Question: What about the “Combination Index” value ([1]; Bouvardin 0.3 uM + 4 Gy IR) of the same compound?
Answer: The value was 2.897.

Question: And the “Fraction Affected” value ([1]; Bouvardin 0.3 uM + 4 Gy IR)?
Answer: The value was 0.8.

Question: And the “Combination Index” value ([1]; Bouvardin 0.6 uM + 1 Gy IR)?
Answer: The value was 2.067.

Question: And the “Fraction Affected” value ([1]; Bouvardin 0.6 uM + 1 Gy IR)?
Answer: Its value is 0.85.

Question: And the “Combination Index” value ([1]; Bouvardin 0.6 uM + 2 Gy IR)?
Answer: Its value is 2.148.

Question: What about the “Fraction Affected” value ([1]; Bouvardin 0.6 uM + 2 Gy IR) of the same compound?
Answer: The value was 0.849.

Question: And the “Combination Index” value ([1]; Bouvardin 0.6 uM + 4 Gy IR)?
Answer: Its value is 4.862.

Question: What about the “Fraction Affected” value ([1]; Bouvardin 0.6 uM + 4 Gy IR) of the same compound?
Answer: Its value is 0.797.

Question: And the “Combination Index” value ([1]; Bouvardin 1 uM + 1 Gy IR)?
Answer: Its value is 4.673.

Question: And the “Fraction Affected” value ([1]; Bouvardin 1 uM + 1 Gy IR)?
Answer: The value was 0.165.

Question: And the “Combination Index” value ([1]; Bouvardin 1 uM + 2 Gy IR)?
Answer: The value was 1.605.

Question: What about the “Fraction Affected” value ([1]; Bouvardin 1 uM + 2 Gy IR) of the same compound?
Answer: Its value is 0.292.

Question: What about the “Combination Index” value ([1]; Bouvardin 1 uM + 4 Gy IR) of the same compound?
Answer: The value was 0.989.

Question: What about the “Fraction Affected” value ([1]; Bouvardin 1 uM + 4 Gy IR) of the same compound?
Answer: Its value is 0.478.

Question: And the “interaction of Bouvardin with radiation across the panel” value [2]?
Answer: The value was “synergize in most, but not all of these cell lines”.
